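Where inhibition never reached the appropriate level, the endpoint shown equals the highest concentration tested. Otherwise, values were interpolated linearly from a five-concentration, 48-hour dose response in 96-well plates. GI50 is the concentration that inhibits growth by half.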 Calls of active or inactive are those of the source. Rule as the data show it: active = GI50 up to about 1.1 µM and inactive = higher.
Assays:
Assay in all cases: inhibition of tumour cell growth, NCI panel, 48 h
OVCAR-4 = tested on: OVCAR-4
M19-MEL = tested on: M19-MEL
UACC-62 = tested on: UACC-62
SF-268 = tested on: SF-268
CAKI-1 = tested on: CAKI-1
Malme-3M = tested on: Malme-3M
COLO 205 = tested on: COLO 205
LXFL 529 = tested on: LXFL 529
ACHN = tested on: ACHN
LOX IMVI = tested on: LOX IMVI
TK-10 = tested on: TK-10
MOLT-4 = tested on: MOLT-4
SN12C = tested on: SN12C
XF498 = tested on: XF498
NCI-H226 = tested on: NCI-H226
A549 = tested on: A549
UACC-257 = tested on: UACC-257
RXF 393 = tested on: RXF 393
NCI-H460 = tested on: NCI-H460
SK-MEL-5 = tested on: SK-MEL-5
SF-295 = tested on: SF-295
SW-620 = tested on: SW-620
RPMI-8226 = tested on: RPMI-8226
RXF 631 = tested on: RXF 631
HCT-15 = tested on: HCT-15
EKVX = tested on: EKVX
A498 = tested on: A498
786-0 = tested on: 786-0
K562 = tested on: K562
OVCAR-8 = tested on: OVCAR-8
SNB-19 = tested on: SNB-19
DMS-114 = tested on: DMS-114
HT-29 = tested on: HT-29
SK-MEL-28 = tested on: SK-MEL-28
CCRF-CEM = tested on: CCRF-CEM
U-251 = tested on: U-251
HL-60 = tested on: HL-60
SK-OV-3 = tested on: SK-OV-3
NCI-H23 = tested on: NCI-H23
IGROV-1 = tested on: IGROV-1
SF-539 = tested on: SF-539
DLD-1 = tested on: DLD-1
OVCAR-3 = tested on: OVCAR-3
KM12 = tested on: KM12
NCI-H522 = tested on: NCI-H522
HCT-116 = tested on: HCT-116
SR = tested on: SR
KM-20L2 = tested on: KM-20L2
DMS-273 = tested on: DMS-273
HOP-92 = tested on: HOP-92
HOP-18 = tested on: HOP-18
UO-31 = tested on: UO-31
M14 = tested on: M14
SNB-75 = tested on: SNB-75
HCC 2998 = tested on: HCC 2998
HOP-62 = tested on: HOP-62
OVCAR-5 = tested on: OVCAR-5
SNB-78 = tested on: SNB-78
SK-MEL-2 = tested on: SK-MEL-2

CC(C)c1ccccc1NC(=O)CCc1n[nH]c(=S)o1
GI50 (OVCAR-4): > 100 µM (inactive) | GI50 (M19-MEL): > 100 µM (inactive) | GI50 (UACC-62): > 100 µM (inactive) | GI50 (SF-268): > 100 µM (inactive) | GI50 (CAKI-1): > 100 µM (inactive) | GI50 (Malme-3M): > 100 µM (inactive) | GI50 (COLO 205): 27.2 µM (inactive) | GI50 (LXFL 529): > 79.8 µM (inactive) | GI50 (ACHN): > 81.7 µM (inactive) | GI50 (LOX IMVI): > 100 µM (inactive) | GI50 (TK-10): > 100 µM (inactive) | GI50 (MOLT-4): > 100 µM (inactive) | GI50 (SN12C): > 100 µM (inactive) | GI50 (XF498): > 100 µM (inactive) | GI50 (NCI-H226): > 100 µM (inactive) | GI50 (A549): 99.8 µM (inactive) | GI50 (UACC-257): > 100 µM (inactive) | GI50 (RXF 393): > 100 µM (inactive) | GI50 (NCI-H460): > 49.9 µM (inactive) | GI50 (SK-MEL-5): > 100 µM (inactive) | GI50 (SF-295): > 100 µM (inactive) | GI50 (SW-620): > 37.4 µM (inactive) | GI50 (RPMI-8226): > 48.9 µM (inactive) | GI50 (RXF 631): > 100 µM (inactive) | GI50 (HCT-15): > 41.7 µM | GI50 (EKVX): > 100 µM (inactive) | GI50 (A498): > 100 µM (inactive) | GI50 (786-0): > 100 µM (inactive) | GI50 (K562): > 50.7 µM (inactive) | GI50 (OVCAR-8): > 100 µM (inactive) | GI50 (SNB-19): > 100 µM (inactive) | GI50 (DMS-114): > 67 µM (inactive) | GI50 (HT-29): > 90.4 µM (inactive) | GI50 (SK-MEL-28): > 100 µM (inactive) | GI50 (CCRF-CEM): > 64.1 µM (inactive) | GI50 (U-251): > 75.9 µM (inactive) | GI50 (HL-60): > 59.8 µM (inactive) | GI50 (SK-OV-3): > 100 µM (inactive) | GI50 (NCI-H23): > 100 µM (inactive) | GI50 (IGROV-1): > 100 µM (inactive) | GI50 (SF-539): 72.3 µM (inactive) | GI50 (DLD-1): > 54.5 µM (inactive) | GI50 (OVCAR-3): > 100 µM (inactive) | GI50 (KM12): > 100 µM (inactive) | GI50 (NCI-H522): > 100 µM (inactive) | GI50 (HCT-116): > 63.5 µM (inactive) | GI50 (SR): > 100 µM (inactive) | GI50 (KM-20L2): > 100 µM (inactive) | GI50 (DMS-273): > 54.3 µM (inactive) | GI50 (HOP-92): > 100 µM (inactive) | GI50 (HOP-18): > 100 µM (inactive) | GI50 (UO-31): > 100 µM (inactive) | GI50 (M14): > 100 µM (inactive) | GI50 (SNB-75): > 66.4 µM (inactive) | GI50 (HCC 2998): > 100 µM (inactive) | GI50 (HOP-62): > 100 µM (inactive) | GI50 (OVCAR-5): > 100 µM (inactive) | GI50 (SNB-78): > 100 µM (inactive)

C=C[C@]1(C)CCC2=C(CCC3C2(C)CCC[C@]3(C)CO)C1 (some centres not stated)
GI50 (OVCAR-4): > 100 µM (inactive) | GI50 (M19-MEL): 43.5 µM (inactive) | GI50 (UACC-62): 76.9 µM (inactive) | GI50 (SF-268): 33.4 µM (inactive) | GI50 (CAKI-1): 76 µM (inactive) | GI50 (Malme-3M): > 100 µM (inactive) | GI50 (COLO 205): 38.4 µM (inactive) | GI50 (LXFL 529): 56.1 µM (inactive) | GI50 (ACHN): 69.2 µM (inactive) | GI50 (LOX IMVI): 27.7 µM (inactive) | GI50 (TK-10): > 100 µM (inactive) | GI50 (MOLT-4): 24.3 µM (inactive) | GI50 (SN12C): 20.2 µM (inactive) | GI50 (XF498): 52.6 µM (inactive) | GI50 (NCI-H226): 41.2 µM (inactive) | GI50 (A549): 40.6 µM (inactive) | GI50 (UACC-257): 51.5 µM (inactive) | GI50 (RXF 393): 25.8 µM (inactive) | GI50 (NCI-H460): 35.1 µM (inactive) | GI50 (SK-MEL-5): 67.1 µM (inactive) | GI50 (SF-295): 43.6 µM (inactive) | GI50 (SW-620): 63.8 µM (inactive) | GI50 (RPMI-8226): 27.2 µM (inactive) | GI50 (RXF 631): 51.1 µM (inactive) | GI50 (HCT-15): 33 µM | GI50 (EKVX): 51.9 µM (inactive) | GI50 (A498): > 100 µM (inactive) | GI50 (786-0): 59.8 µM (inactive) | GI50 (K562): 34.8 µM (inactive) | GI50 (OVCAR-8): 60.5 µM (inactive) | GI50 (SNB-19): > 100 µM (inactive) | GI50 (DMS-114): 31.2 µM (inactive) | GI50 (HT-29): 24.1 µM (inactive) | GI50 (SK-MEL-28): > 100 µM (inactive) | GI50 (CCRF-CEM): 33 µM (inactive) | GI50 (U-251): 26.9 µM (inactive) | GI50 (HL-60): 27.9 µM (inactive) | GI50 (SK-OV-3): > 100 µM (inactive) | GI50 (NCI-H23): 50.4 µM (inactive) | GI50 (SK-MEL-2): 45.9 µM (inactive) | GI50 (IGROV-1): > 100 µM (inactive) | GI50 (SF-539): > 100 µM (inactive) | GI50 (DLD-1): 50 µM (inactive) | GI50 (OVCAR-3): 40 µM (inactive) | GI50 (KM12): 38.4 µM (inactive) | GI50 (NCI-H522): 23 µM (inactive) | GI50 (HCT-116): 35.6 µM (inactive) | GI50 (SR): 26.8 µM (inactive) | GI50 (KM-20L2): 20.2 µM (inactive) | GI50 (DMS-273): 41.8 µM (inactive) | GI50 (HOP-92): 43.1 µM (inactive) | GI50 (HOP-18): > 100 µM (inactive) | GI50 (UO-31): 74 µM (inactive) | GI50 (M14): 75.5 µM (inactive) | GI50 (SNB-75): 61.5 µM (inactive) | GI50 (HCC 2998): 43.7 µM (inactive) | GI50 (HOP-62): > 100 µM (inactive) | GI50 (OVCAR-5): > 100 µM (inactive) | GI50 (SNB-78): 79.4 µM (inactive)
